Results on three molecules are retold here after patent publication US11208416B2, “Selective inhibitors of protein arginine methytransterase 5 (PRMT5)” (Prelude Therapeutics, Incorporated, priority 2017, dated 2021).

For one experiment, the target named is PRMT5/MEP50 complex (Homo sapiens (Human), UniProt O14744). The experiment in a line: Biochemical assay, PRMT5/MEP50 methylation of histone H2A with 3H-SAM. As to conditions: histone H2A 5 μM, PRMT5/MEP50 5 nM. The protocol:
Biochemical Assay Protocol
Compounds were solubilized and 3-fold diluted in 100% DMSO. […] Standard reactions were performed in a total volume of […] assay buffer, with histone H2A (5 μM final) as substrate. To this was added the PRMT5/MEP50 complex diluted to provide a final assay concentration of 5 nM and the compounds were allowed to preincubate for 15 to 20 minutes at room temperature. The reaction was initiated by adding S-[3H-methyl]-adenosyl-L-methionine (PerkinElmer) to final concentration of […]. Following a 60 minutes incubation at 30° C., the reaction was stopped by adding 100 μL of 20% TCA. Each reaction was spotted onto filter plate (MultiScreen FB Filter Plate, Millipore), and washed 5 times with PBS buffer, Scintillation fluid was added to the filter plate and read in a scintillation counter. IC50 values were determined by fitting the data to the standard 4 parameters with Hill Slope using GraphPad Prism software.

In a further experiment the test system is Granta-519 cells. The experiment in a line: Cell proliferation assay on Granta-519 cells (CCK-8). It counts as cell-based. Conditions: Homo sapiens, 240 h; Granta-519 cell line, day 10; read-out: Prolif. IC50. The method, then:
Cell Proliferation Assay to Determine IC50 on Granta-519 Cells
Granta-519 cells were maintained in PRMI 1640 (Corning Cellgro, Catalog #: 10-040-CV) medium supplemented with 10% v/v FBS (GE Healthcare, Catalog #: SH30910.03). Compounds were dissolved in DMSO to make 10 mM stocks and stored at −20° C. Nine-point, 3-fold serial dilutions were made with DMSO with top concentration at 1 mM (working stocks).
On day of experiment, compound working stocks were further diluted at 1:50 with fresh medium in 96 well plate, and 10 μL of diluted drugs were added to a new 96 well plate for proliferation assay. Cells growing at exponential phase were spun down at 1500 rpm for 4 min and resuspend in fresh medium to reach a density of 0.5×10^6 cells/ml. 200 ul of cells were added to 96 well plate containing diluted drugs and incubated for 3 days. DMSO was used a vehicle control.
One day 3, 10 μL of Cell Counting Kit-8 (CCK-8, Jojindo, CK04-13) solution was added to a new 96 well plate. […] Plates were incubated in CO2 incubator for 2 hours and OD450 values were measured with a microplate reader (iMark microplate reader, Bio-Rad). […]
Percentage of viable cells, relative to DMSO vehicle control, were calculated and plotted in Graphpad Prism ([Inhibitor] vs. normalized response−Variable slope) to determine proliferation IC50 values on day 10.

The test system of experiment [1] is Symmetric Di-Methyl Arginine (sDMA). The experiment in a line: Western blot for sDMA marks in Granta cells (enzyme inhibition IC50). The class given is cell-based. As to conditions: Homo sapiens, 72 h; Granta-519 cell line, 3 days. (In western blotting, separated proteins are transferred to a membrane and probed.)
A further experiment deals with sDMA. The experiment is described as follows: sDMA levels in tumor samples of Granta-519 mouse xenograft (Western blot). The class given is in vivo. Conditions: 50 mg/kg orally QD. The method, then: Granta-519 cells was maintained in DMEM medium supplemented with 10% fetal bovine serum and 2 mM L-Glutamine at 37° C. in an atmosphere of 5% CO2 in air. Cells in exponential growth phase were harvested and 1×10^7 cells in 0.1 mL of PBS with Matrigel (1:1) were injected subcutaneously at the right lower flank region of each mouse for tumor development. The treatments were started when the mean tumor size reaches approximately 300-400 mm^3. […] Example 47 or vehicle (0.5% Na CMC+0.5% Tween80, suspension) were administered orally (QD for Example 47, QD for vehicle) at a dose of 30 mg/kg and 50 mg/kg for 19 and 16 days, respectively. Body weights and tumor size were measured every 3 to 4 days after randomization. Animals were euthanized 12 hours after last dosing, and blood and tumor samples were collected for analysis.
To measure sDMA levels in tumor samples, tumors from each mouse were weighted and homogenized in RIPA buffer supplemented with protease inhibitor (cOmplete™ EDTA-free Protease Inhibitor Cocktail, Roche). Lysate were centrifuged at 14,000 rpm for 30 min at 4° C. to remove debris. Total protein concentrations of lysate were determined by BCA assay (ThermoFisher Scientific, Catalog #: 23225). Equal amount of total proteins from each tumor were separated on SDS-PAGE gel, and sDMA levels were determined by WB as described previously.

Chain of PRMT5/MEP50 complex (O14744 whole entry): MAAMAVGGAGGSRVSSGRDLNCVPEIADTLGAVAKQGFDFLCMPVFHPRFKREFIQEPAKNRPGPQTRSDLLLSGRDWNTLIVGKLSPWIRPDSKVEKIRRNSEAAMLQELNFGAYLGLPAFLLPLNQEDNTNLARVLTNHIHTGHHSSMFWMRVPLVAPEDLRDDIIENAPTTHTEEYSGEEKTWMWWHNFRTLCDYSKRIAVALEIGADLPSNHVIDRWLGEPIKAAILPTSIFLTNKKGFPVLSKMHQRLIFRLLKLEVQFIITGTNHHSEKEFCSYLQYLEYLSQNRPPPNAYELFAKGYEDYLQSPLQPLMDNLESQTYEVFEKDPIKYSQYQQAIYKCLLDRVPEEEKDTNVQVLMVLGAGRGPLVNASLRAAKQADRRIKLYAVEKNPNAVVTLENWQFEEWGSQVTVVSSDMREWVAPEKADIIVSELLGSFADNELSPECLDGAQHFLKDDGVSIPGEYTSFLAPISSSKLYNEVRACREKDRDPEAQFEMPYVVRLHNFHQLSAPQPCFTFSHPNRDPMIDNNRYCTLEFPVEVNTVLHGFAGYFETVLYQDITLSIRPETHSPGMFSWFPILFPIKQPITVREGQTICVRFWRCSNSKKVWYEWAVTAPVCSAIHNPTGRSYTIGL
Chain of PRMT5/MEP50 complex (Q9BQA1 whole entry partner): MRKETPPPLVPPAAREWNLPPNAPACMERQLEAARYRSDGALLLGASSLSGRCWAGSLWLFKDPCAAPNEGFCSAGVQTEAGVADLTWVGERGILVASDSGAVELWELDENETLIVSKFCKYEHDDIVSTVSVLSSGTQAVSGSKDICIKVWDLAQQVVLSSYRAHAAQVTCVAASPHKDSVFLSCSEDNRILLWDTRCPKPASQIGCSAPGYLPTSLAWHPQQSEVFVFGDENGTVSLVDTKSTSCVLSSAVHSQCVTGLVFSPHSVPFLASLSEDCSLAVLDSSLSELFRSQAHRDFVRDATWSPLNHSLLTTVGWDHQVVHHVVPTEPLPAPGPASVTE

Consider `CSC[C@H]1O[C@@H](n2ccc3c(N)ncnc32)[C@H](O)[C@]1(C)O` [Example 17, (2S,3S,4R,5R)-5-(4-amino-7H-pyrrolo[2,3-d]pyrimidin-7-yl)-3-methyl-2-((methylthio)methyl)tetrahydrofuran-3,4-diol], for which the IC50 on PRMT5/MEP50 complex came out at 0.9 µM; in the experiment on Granta-519 cells, 200 µM; in experiment [1], 1 µM.

As for `Cc1ncnc2c1ccn2[C@@H]1O[C@H](Cc2ccc(Cl)cc2CO)[C@@](C)(O)[C@H]1O` [Example 64, (2R,3S,4R,5R)-2-[[4-chloro-2-(hydroxymethyl)phenyl]methyl]-3-methyl-5-(4-methylpyrrolo[2,3-d]pyrimidin-7-yl)tetrahydrofuran-3,4-diol], on PRMT5/MEP50 complex, 1.61 µM corresponded to half-maximal inhibition (IC50). Take `C[C@@]1(O)[C@@H]([C@H](O)c2ccc(Cl)c(Cl)c2)O[C@@H](n2ccc3c(N)ncnc32)[C@@H]1O` [Example 47, (2R,3S,4R,5R)-5-(4-amino-7H-pyrrolo[2,3-d]pyrimidin-7-yl)-2-((R)-(3,4-dichlorophenyl)(hydroxy)methyl)-3-methyltetrahydrofuran-3,4-diol]: the “sDMA level in tumor” value with sDMA is given as “no detectable sDMA”.

Broadly, the IC50 is the concentration that inhibits the measured activity by half.
